Assay: Release of trehalose during dialysis into 1 L water at 37° C.
Format: physicochemical
Details: 0.3 g trehalose in 2 ml water
Procedure: FIG. 2. Release of trehalose (0.3 g) into 1 L water during dialysis under 3 conditions: free dissolved, nanoencapsulated (NE) with cooling/heating between 22 and 37° C. (NE22-37C), and nanoencapsulated kept at 37° C. (NE37C) before dialysis.
This nanocapsule has been used to physically encapsulate a small molecular weight hydrophilic trehalose (Mw=342 Da) for its intracellular delivery and controlled release. […] Clearly, the free dissolved trehalose was completely released from the dialysis bag in ˜2 hr, while trehalose release from the other two conditions with nanoencapsulation is much slower. The release for the sample kept 37° C. (i.e., NE37C) reached equilibrium at approximately 4 hours while it is approximately 3 hours for the sample with cooling and heating between 22 and 37° C. (i.e., NE22-37C). Moreover, approximately 11.3 and 4.3 mg trehalose were still retained in the NE37C and NE22-37C samples under the equilibrium state, respectively. […] In other words, a quick release of the nanoencapsulated trehalose can be achieved by thermally cycling the trehalose loaded nanocapsule between 22 and 37° C.

OC[C@H]1O[C@H](O[C@H]2O[C@H](CO)[C@@H](O)[C@H](O)[C@H]2O)[C@H](O)[C@@H](O)[C@@H]1O [free dissolved trehalose, trehalose]
time to complete release of trehalose from the dialysis bag: ~2 h

— patent US20100221351A1, “Controlled Drug Delivery Using a Thermally Responsive Nanocapsule to Augment Cryoablation” (UNIVERSITY OF SOUTH CAROLINA, priority 2009, published 2010)
